Test results from US9789199B2, “MetAP-2 inhibitor polymersomes for therapeutic administration” (priority 2007, dated 2017).
Entries after “also recorded” stand apart in the source; their conditions may differ.

What was measured:
[1] = high chemotherapeutic doses; cited from earlier work
[2] = system: obesity; details: mice; cited from earlier work
[3] = parent drug; cited from earlier work
[4] = system: LLC tumors; experiment: Oral Lodamin vs free TNP-470, primary Lewis lung carcinoma tumor experiments; assay type: in vivo, mouse; details: free TNP-470 given orally, 30 mg/kg q.o.d.
Description: For tumor experiments: LLC cells (1×10^6) or B16/F10 melanoma cells (1×10^6) were implanted subcutaneously in 8 week old C57Bl/6J male mice (Jackson Laboratories, Bar Harbor, Me.). Oral availability of free TNP-470 was compared to that of Lodamin. A dose of 30 mg/kg q.o.d. of free TNP-470 and an equivalent dose of Lodamin (Lodamin, 6 mg in 100 μl/d) were administered to LLC tumor bearing mice (˜100 mm^3) and tumor growth was followed for 18 d. Free drug was given as a suspension in double distilled water and freshly prepared before each dose. Additionally, we compared different doses and frequencies of Lodamin treatment: 15 mg/kg q.d., 15 mg/kg q.o.d. and 30 mg/kg q.o.d. To eliminate any possible effect of the vehicle (polymer without drug) one group of mice was given micelles without drug and tumor progression was compared to water treated mice.
For the melanoma tumor experiment, a dose of 15 mg/kg q.d. Lodamin was administered to B16/F10 melanoma bearing mice. In all experiments, tumor size and animal weight were monitored every 2 d. Tumor volume was measured with calipers in two diameters as follows: (width)^2×(length)×0.52. Note that all the above Lodamin doses are presented as TNP-470 equivalent.

[5] = system: murine, human and metastatic tumors; details: mice, cited from earlier work
[6] = system: RAGE and HMGB-1; experiment: RAGE and HMGB-1 protein levels in HMVEC; assay type: cell-based; details: 0.1-100 nM
Description: A dose dependent effect on RAGE expression was detected.
RPE cells were cultivated as has been previously described^59. […] HMVECs, were purchased from Cambrex Bio Science Inc. (Rockland, Me.) and were maintained on collagen I coated plates with endothelial cell growth medium containing 2% FBS (EGM-2; Cambrex, Inc.) at 37° C. with humidified 95% air/5% CO2.
Lodamin Reduces MCP-1 and VEGF Induced Vessel Permeability

[7] = Balance beam motor coordination test (neurotoxicity); assay type: in vivo, mouse; details: free TNP-470 injected subcutaneously 30 mg/kg q.o.d., vs control
Description: A slightly modified balance beam motor coordination test was performed on three groups of mice: Oral Lodamin treated mice (30 mg/kg eq. q.o.d.), free TNP-470 (30 mg/kg) subcutaneously injected mice and water treated mice (administered by gavage). The mice were pretreated for 14 d (n=4-5 per group) and then the mice were allowed to acclimate to the procedure room for 1 h, after which they were trained in 3 trials to cross a wide (20 mm width×1 m length) balance beam. All the mice crossed the wide beam without making foot-slip errors. The mice were then trained on a narrow (4 mm width×1 m length) beam for 3 trials. At the end of the training trials, no freezing behavior was observed, and the mice would start to walk within 4 seconds of being placed on the beam. The mice were then videotaped as they performed in 3 test trials of 3 beam crossings each—a total of 9 crossings per mouse. The 3 trials were separated by at least 1 h to avoid fatigue of the mice. Videotaped crossings were scored for number of foot-slip errors and time to cross. All experiments and scoring of the different groups were performed by an investigator who has been no knowledge regarding the treatment regime of the mice.

[8] = Body distribution and serum levels after oral administration; assay type: in vivo, mouse; details: post-administration
Description: For all biodistribution studies we used a fluorescent marker for tracking Lodamin. Mice were administered 6-coumarin labeled mPEG-PLA by oral gavage for 3 d (100 μl of 1.5 mg/ml). On the third day of treatment, after 8 h of fasting, animals were sacrificed and spleen, kidney, brain, lungs, liver, intestine, stomach, and bladder were collected. The fluorescent 6-coumarin was extracted from the tissues by incubation with formamide for 48 h at 25° C. Samples were centrifuged and signal intensity of fluorescence of supernatants was detected with a Wallac 1420 VICTOR plate-reader (Perkin-Elmer Life Sciences) with excitation/emission at 488 nm/530 nm. […] Tissue autofluorescence was corrected by subtracting the fluorescent signal of non-treated mouse organs from the respective readings in treated mice. Similarly, levels of fluorescent signal in mouse sera were measured in different time points (1, 2, 4, 8, 24, 48 and 72 h) using excitation/emission readings at 488 nm/530 nm.
In order to analyze cell uptake in the different tissues in tumor bearing mice, PEG-PLA-rhodamine micelles (100 μl of 1.5 mg/ml) or water were orally administered to C57Bl/6J mice bearing LLC tumors (200 mm^3) for 3 d. […] These suspensions were analyzed by flow cytometry in order to quantify the uptake of micelles into different tissue cells when compared to those in the untreated mouse.

6-O—(N-chloroacetylcarbamoyl)fumagillol [TNP-470]
neurotoxicity in patients [1]: many patients experience neurotoxicity | effect on obesity [2]: prevent diet-induced and genetic obesity | plasma half-life [3]: a few minutes | effect on growth of subcutaneous LLC tumors [4]: no inhibition; also recorded: had no effect | inhibition of growth of human tumors [5]: up to 100% | inhibition of growth of metastatic tumors [5]: up to 100% | inhibition of growth of murine tumors ([5]; mostly 30 mg/kg subcutaneously every other day): up to 91% | RAGE and HMGB-1 levels [6]: reduced in a dose dependent manner | balance beam foot-slip errors [7]: over twice as many errors | time up to which free drug was detected in mice sera [8]: up to 2 h
